# In patent US20260274833A1 (NiKang Therapeutics, Inc., priority 2022, published 2026):
# Target: T1, CDK2 (Homo sapiens, UniProt P24941)
# T1 construct: endogenous in cells; host or cells: OVCAR3 cells
# Assay: Phospho-RB measurement in OVCAR3 cells (HTRF phospho-RB cellular kit)
# Type: cell-based
# Settings: inhibition of RB phosphorylation at S807/811 (HTRF, TR-FRET ratio 665/620), 24 h compound treatment, 0.3 to 10,000 nM
# Procedure, shortened: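 IC50 came from a four-parameter logistic fit of the DMSO-normalized TR-FRET ratio (665/620 nm). That ratio reflects RB phosphorylation at S807/811, read with an HTRF antibody pair 4 h after adding lysate at room temperature.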
row,Compound,IC50
1,"CC1(c2nc(-c3cccc(NS(=O)(=O)N4Cc5ccc(CO)cc5C4)c3F)c(-c3ccnc(N[C@H]4[C@@H]5CS(=O)(=O)C[C@@H]54)n3)s2)CCOCC1 [Example 12, N-(3-(5-(2-(((1R, 5S,6r)-3,3-dioxido-3-thiabicyclo[3.1.0]hexan-6-yl)amino)-pyrimidin-4-yl)-2-(4-methyltetrahydro-2H-pyran-4-yl)thiazol-4-yl)-2-fluorophenyl)-5-(hydroxymethyl)-isoindoline-2-sulfonamide]",47.8 nM
2,"CC(C)c1nc(-c2cccc(NS(=O)(=O)N3CCc4ccccc43)c2F)c(-c2ccnc(NC3CCN(S(=O)(=O)N4CCNCC4)CC3)n2)s1 [Example 178, N-(2-fluoro-3-(2-isopropyl-5-(2-((1-(piperazin-1-ylsulfonyl)piperidin-4-yl)amino)pyrimidin-4-yl)thiazol-4-yl)phenyl)indoline-1-sulfonamide]",203 nM
3,"CS(=O)(=O)[C@H]1CC[C@H](Nc2nccc(-c3sc(C45CC(C(F)(F)F)(C4)C5)nc3-c3cccc(NS(=O)(=O)N4Cc5ccccc5C4)c3F)n2)CC1 [Example 57, N-(2-fluoro-3-(5-(2-(((1r,4r)-4-(methylsulfonyl)cyclohexyl)amino)-pyrimidin-4-yl)-2-(3-(trifluoromethyl)-bicyclo[1.1.1]-pentan-1-yl)thiazol-4-yl)phenyl) isoindoline-2-sulfonamide]",494 nM
4,"CN1CCN(c2ccc(Nc3nccc(-c4sc(C(C)(C)C)nc4-c4cccc(NS(=O)(=O)N5CCc6ccc(C#N)cc65)c4F)n3)cc2)CC1 [Example 249, N-(3-(2-(tert-butyl)-5-(2-((4-(4-methyl-piperazin-1-yl)phenyl)amino)pyrimidin-4-yl)-thiazol-4-yl)-2-fluoro-phenyl)-6-cyanoindoline-1-sulfonamide]",684 nM
5,"CC(C)(C)c1nc(-c2cccc(NS(=O)(=O)N3CC4CC4C3)c2F)c(-c2ccnc(NC3CCN(S(=O)(=O)N4CCNCC4)CC3)n2)s1 (stereo not shown) [Example 155, N-(3-(2-(tert-butyl)-5-(2-((1-(piperazin-1-ylsulfonyl)piperidin-4-yl)amino)-pyrimidin-4-yl)thiazol-4-yl)-2-fluorophenyl)-3-azabicyclo[3.1.0]-hexane-3-sulfonamide]",1060 nM
6,"O=S1(=O)CC2(CC(Nc3nccc(-c4sc(N5C6CCC5CN(CC(F)(F)F)C6)nc4-c4cccc(NS(=O)(=O)N5CCc6ccccc65)c4F)n3)C2)C1 [Example 38, N-(3-(5-(2-((2,2-dioxido-2-thiaspiro-[3.3]-heptan-6-yl)amino)pyrimidin-4-yl)-2-(3-(2,2,2-trifluoroethyl)-3,8-diazabicyclo[3.2.1]-octan-8-yl)thiazol-4-yl)-2-fluorophenyl)-indoline-1-sulfonamide]",263 nM
7,"CN(C)c1cccc2c1CN(S(=O)(=O)Nc1cccc(-c3nc(C(C)(C)C)sc3-c3ccnc(NC4CC5(C4)CS(=O)(=O)C5)n3)c1F)C2 [Example 206, N-(3-(2-(tert-butyl)-S-(2-((2,2-dioxido-2-thiaspiro[3.3]heptan-6-yl)amino)-pyrimidin-4-yl)thiazol-4-yl)-2-fluoro-phenyl)-4-(dimethylamino) isoindoline-2-sulfonamide]",619 nM
8,"CN1CC2CCC(C1)N2c1nc(-c2cccc(NS(=O)(=O)N3CCc4ccc(Cl)cc43)c2F)c(-c2ccnc(NC3CC4(C3)CS(=O)(=O)C4)n2)s1 [Example 43, 6-chloro-N-(3-(5-(2-((2,2-dioxido-2-thiaspiro[3.3]heptan-6-yl)amino)-pyrimidin-4-yl)-2-(3-methyl-3,8-diazabicyclo [3.2.1]octan-8-yl)thiazol-4-yl)-2-fluorophenyl) indoline-1-sulfonamide]",27.1 nM
9,"COCCOCCN1CCN(c2ccc(Nc3nccc(-c4sc(C(C)(C)C)nc4-c4cccc(NS(=O)(=O)N5CCc6ccc(C#N)cc65)c4F)n3)cc2)CC1 [Example 234, N-(3-(2-(tert-butyl)-5-(2-((4-(4-(2-(2-methoxy-ethoxy)ethyl)piperazin-1-yl)phenyl)amino)-pyrimidin-4-yl)thiazol-4-yl)-2-fluorophenyl)-6-cyanoindoline-1-sulfonamide]",1200 nM
10,"CN1CCN(S(=O)(=O)N2CCC(Nc3nccc(-c4sc(C(C)(C)C)nc4-c4cccc(NS(=O)(=O)N5CCc6c(C#N)cccc65)c4F)n3)CC2)CC1 [Example 125, N-(3-(2-(tert-butyl)-5-(2-((1-((4-methyl-piperazin-1-yl)sulfonyl)piperidin-4-yl)amino)-pyrimidin-4-yl)thiazol-4-yl)-2-fluorophenyl)-4-cyanoindoline-1-sulfonamide]",204 nM
11,"O=S1(=O)CC2(CC(Nc3nccc(-c4sc(N5C6CCC5COC6)nc4-c4cccc(NS(=O)(=O)N5Cc6ccncc6C5)c4F)n3)C2)C1 [Example 212, N-(3-(2-(3-oxa-8-azabicyclo [3.2.1]octan-8-yl)-5-(2-((2,2-dioxido-2-thiaspiro-[3.3]heptan-6-yl)amino)pyrimidin-4-yl)thiazol-4-yl)-2-fluorophenyl)-1,3-dihydro-2H-pyrrolo [3,4-c]-pyridine-2-sulfonamide]",662 nM
12,"CS(=O)(=O)[C@H]1CC[C@H](Nc2nccc(-c3sc(C4(C(F)(F)F)CC4)nc3-c3cccc(NS(=O)(=O)N4CCc5ccc(Cl)cc54)c3F)n2)CC1 [Example 283, 6-chloro-N-(2-fluoro-3-(5-(2-(((1r,4r)-4-(methylsulfonyl)cyclohexyl)amino)pyrimidin-4-yl)-2-(1-(trifluoromethyl)-cyclopropyl)thiazol-4-yl)phenyl)-indoline-1-sulfonamide]",200 nM
13,"COc1cccc2c1CN(S(=O)(=O)Nc1cccc(-c3nc(C(C)(C)C)sc3-c3ccnc(N[C@H]4[C@@H]5CS(=O)(=O)C[C@@H]54)n3)c1F)C2 [Example 221, N-(3-(2-(tert-butyl)-5-(2-(((1R,5S,6r)-3,3-dioxido-3-thiabicyclo [3.1.0]hexan-6-yl)amino)pyrimidin-4-yl)thiazol-4-yl)-2-fluorophenyl)-4-methoxyisoindoline-2-sulfonamide]",35.5 nM

# Other lines, results leading:
row,IC50,Compound
1,1490 nM,"CC(C)(C)c1nc(-c2cccc(NS(=O)(=O)N3CCOc4ccccc43)c2F)c(-c2ccnc(NC3CCN(S(=O)(=O)N4CCNCC4)CC3)n2)s1 [Example 136, N-(3-(2-(tert-butyl)-5-(2-((1-(piperazin-1-ylsulfonyl)piperidin-4-yl)amino)-pyrimidin-4-yl)thiazol-4-yl)-2-fluorophenyl)-2,3-dihydro-4H-benzo[b][1,4] oxazine-4-sulfonamide]"
2,65 nM,"CC(C)(C)c1nc(-c2cccc(NS(=O)(=O)N3Cc4ccccc4C3)c2F)c(-c2ccnc(NC3CCN(S(N)(=O)=O)CC3)n2)s1 [Example 76, N-(3-(2-(tert-butyl)-5-(2-((1-sulfamoyl-piperidin-4-yl)amino)pyrimidin-4-yl)thiazol-4-yl)-2-fluorophenyl)-isoindoline-2-sulfonamide]"
3,1470 nM,"CC(C)(C)c1nc(-c2cccc(NS(=O)(=O)N3CCn4cncc4C3)c2F)c(-c2ccnc(NC3CCN(S(C)(=O)=O)CC3)n2)s1 [Example 83, N-(3-(2-(tert-butyl)-5-(2-((1-(methylsulfonyl)-piperidin-4-yl)amino)-pyrimidin-4-yl)thiazol-4-yl)-2-fluoro-phenyl)-5,6-dihydroimidazo [1,5-a]-pyrazine-7 (8H)-sulfonamide]"
4,90.3 nM,"CN(C)CCN(C)S(=O)(=O)N1CCC(Nc2nccc(-c3sc(C(C)(C)C)nc3-c3cccc(NS(=O)(=O)N4Cc5ccccc5C4)c3F)n2)CC1 [Example 156, N-(3-(2-(tert-butyl)-5-(2-((1-(N-(2-(dimethylamino)ethyl)-N-methyl-sulfamoyl)piperidin-4-yl)amino)-pyrimidin-4-yl)thiazol-4-yl)-2-fluoro-phenyl)isoindoline-2-sulfonamide]"
5,4810 nM,"CN1CCN(S(=O)(=O)Nc2cccc(-c3nc(C(C)(C)C)sc3-c3ccnc(NC4CCN(S(C)(=O)=O)CC4)n3)c2F)CC1=O [Example 89, N-(3-(2-(tert-butyl)-5-(2-((1-(methylsulfonyl)-piperidin-4-yl)amino)-pyrimidin-4-yl)thiazol-4-yl)-2-fluoro-phenyl)-4-methyl-3-oxopiperazine-1-sulfonamide]"
6,265 nM,"CN(C)CCN(C)S(=O)(=O)N1CCC(Nc2nccc(-c3sc(C(C)(C)C)nc3-c3cccc(NS(=O)(=O)N4Cc5cccnc5C4)c3F)n2)CC1 [Example 121, N-(3-(2-(tert-butyl)-5-(2-((1~(N-(2-(dimethylamino)ethyl)-N-methylsulfamoyl)-piperidin-4-yl)amino)-pyrimidin-4-yl)thiazol-4-yl)-2-fluoro-phenyl)-5,7-dihydro-6H-pyrrolo[3,4-b]-pyridine-6-sulfonamide]"
7,8260 nM,"CC(C)(C)c1nc(-c2cccc(NS(=O)(=O)N3CCCCC3c3ccccc3)c2F)c(-c2ccnc(NC3CCN(S(C)(=O)=O)CC3)n2)s1 (stereo not shown) [Example 67, N-(3-(2-(tert-butyl)-5-(2-((1-(methylsulfonyl)-piperidin-4-yl)amino)-pyrimidin-4-yl)thiazol-4-yl)-2-fluoro-phenyl)-2-phenylpiperidine-1-sulfonamide]"
8,241 nM,"CN1CC(N(C)S(=O)(=O)N2CCC(Nc3nccc(-c4sc(C(C)(C)C)nc4-c4cccc(NS(=O)(=O)N5Cc6ccccc6C5)c4F)n3)CC2)C1 [Example 179, N-(3-(2-(tert-butyl)-5-(2-((1-(N-methyl-N-(1-methylazetidin-3-yl)sulfamoyl)-piperidin-4-yl)amino)pyrimidin-4-yl)-thiazol-4-yl)-2-fluorophenyl)-isoindoline-2-sulfonamide]"
9,> 5000 nM,"CC1CCCCN1S(=O)(=O)Nc1cccc(-c2nc(C(C)(C)C)sc2-c2ccnc(NC3CCN(S(C)(=O)=O)CC3)n2)c1F (stereo not shown) [Example 66, N-(3-(2-(tert-butyl)-5-(2-((1-(methylsulfonyl)-piperidin-4-yl)amino)-pyrimidin-4-yl)thiazol-4-yl)-2-fluoro-phenyl)-2-methylpiperidine-1-sulfonamide]"
